Literature values in patent publication US20220175791A1, “Methods for Predicting Neisseria Spp. Susceptibility to Cefixime” (priority 2019, published 2022).

In the case of `C=CC1=C(C(=O)O)N2C(=O)[C@@H](NC(=O)/C(=N\OCC(=O)O)c3csc(N)n3)[C@H]2SC1` [cefixime, Cefixime], the tolerability (even in penicillin allergic patients) is listed as “very well tolerated” and the bioavailability (human, in vivo, po) is listed as “high”.
